Test results from ChEMBL document CHEMBL3739395, “Discovery and optimisation of 1-acyl-2-benzylpyrrolidines as potent dual orexin receptor antagonists” (Medchemcomm, 2015).
Values after ≈ are worked out from the molar mass of the structure shown. Active and inactive are the calls of the source. No cut-off for these calls is given here.

Legend:
Orexin receptor type 2 = target: T1, Orexin receptor type 2 (Homo sapiens, UniProt O43614); assay: Inhibition of human orexin-2 receptor expressed in CHO cells assessed as calcium release preincubated for 120 mins followed by addition of orexin-A by fluo-4 AM based-FLIPR analysis; type: functional, cell-based
T1 sequence (O43614 whole entry): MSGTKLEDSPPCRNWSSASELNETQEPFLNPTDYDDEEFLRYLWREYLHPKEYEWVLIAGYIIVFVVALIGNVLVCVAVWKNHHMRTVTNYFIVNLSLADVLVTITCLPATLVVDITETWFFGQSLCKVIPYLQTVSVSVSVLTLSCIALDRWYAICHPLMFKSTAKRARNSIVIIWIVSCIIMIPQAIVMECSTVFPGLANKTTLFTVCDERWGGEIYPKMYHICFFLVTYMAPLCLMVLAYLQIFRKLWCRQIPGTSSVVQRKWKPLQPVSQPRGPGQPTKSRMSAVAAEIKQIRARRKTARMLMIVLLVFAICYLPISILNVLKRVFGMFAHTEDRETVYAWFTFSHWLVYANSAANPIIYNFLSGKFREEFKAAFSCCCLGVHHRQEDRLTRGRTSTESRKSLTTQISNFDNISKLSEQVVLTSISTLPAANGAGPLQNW

[1] = Intrinsic clearance in human liver microsomes at 1 uM; type: ADME; settings: read-out: CLH
[2] = target: T2, Orexin/Hypocretin receptor type 1 (Homo sapiens, UniProt O43613); assay: Inhibition of human orexin-1 receptor expressed in CHO cells assessed as calcium release preincubated for 120 mins followed by addition of orexin-A by fluo-4 AM based-FLIPR analysis; type: functional, cell-based
T2 sequence (O43613 whole entry): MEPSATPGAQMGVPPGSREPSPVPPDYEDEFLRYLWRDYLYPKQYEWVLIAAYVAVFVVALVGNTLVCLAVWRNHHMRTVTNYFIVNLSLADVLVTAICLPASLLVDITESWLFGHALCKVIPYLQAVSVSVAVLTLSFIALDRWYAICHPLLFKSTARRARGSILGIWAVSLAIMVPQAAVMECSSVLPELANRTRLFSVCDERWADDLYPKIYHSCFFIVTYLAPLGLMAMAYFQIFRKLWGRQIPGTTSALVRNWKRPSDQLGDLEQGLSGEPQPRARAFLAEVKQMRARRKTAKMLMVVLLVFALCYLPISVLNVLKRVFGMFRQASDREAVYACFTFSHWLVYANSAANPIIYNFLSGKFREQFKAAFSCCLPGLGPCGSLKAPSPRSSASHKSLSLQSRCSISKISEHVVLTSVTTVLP

[3] = Intrinsic clearance in rat liver microsomes at 1 uM; type: ADME; settings: read-out: CLH
[4] = Solubility of compound in unbuffered water at pH 4.1; type: physicochemical
Cytochrome P450 3A4 = Cytochrome P450 3A4 (Homo sapiens, UniProt P08684); assay: Inhibition of CYP3A4 (unknown origin) assessed as testosterone-6beta hydroxylation; type: ADME
[5] = Drug uptake in Wistar rat brain at 100 mg/kg, po measured 3 hrs post dose; type: ADME, organism-based; settings: read-out: Drug uptake
[6] = Drug uptake in Wistar rat cerebrospinal fluid at 100 mg/kg, po measured 3 hrs post dose; type: ADME, organism-based; settings: read-out: Drug uptake
[7] = Ratio of drug level in brain to plasma in Wistar rat at 100 mg/kg, po measured 3 hrs post dose; type: ADME, organism-based; settings: brain and plasma, read-out: BPR
[8] = Plasma concentration in Wistar rat at 100 mg/kg, po measured 3 hrs post dose; type: ADME, organism-based
Rattus norvegicus [9] = assay: Reduction in home cage activity in Wistar rat sleep model at 100 mg/kg, po administered as single dose during first 6 hrs of night active period post dose relative to vehicle control; type: functional; design: scale not given: the % may be the effect or the level left
Rattus norvegicus [10] = assay: Sleep promoting effect in Wistar rat sleep model at 100 mg/kg, po administered as single dose during first 6 hrs of night active period post dose relative to vehicle control; type: functional, organism-based
Rattus norvegicus [11] = assay: Reduction in time spent in active wake state in Wistar rat sleep model at 100 mg/kg, po administered as single dose during first 6 hrs of night active period post dose relative to vehicle control; type: functional; design: scale not given: the % may be the effect or the level left
Rattus norvegicus [12] = assay: Increase in time spent in quiet wake state in Wistar rat sleep model at 100 mg/kg, po administered as single dose during first 6 hrs of night active period post dose relative to vehicle control; type: functional
Rattus norvegicus [13] = assay: Increase in time spent in non-rapid eye movement sleep in Wistar rat sleep model at 100 mg/kg, po administered as single dose during first 6 hrs of night active period post dose relative to vehicle control; type: functional
Rattus norvegicus [14] = assay: Increase in time spent in rapid eye movement sleep in Wistar rat sleep model at 100 mg/kg, po administered as single dose during first 6 hrs of night active period post dose relative to vehicle control; type: functional
[15] = Clearance in rat; type: ADME, organism-based; settings: in vivo
[16] = Oral bioavailability in rat; type: ADME, organism-based; settings: in vivo
[17] = Lipophilicity, log D of the compound; type: physicochemical; settings: octanol/water

Cytochrome P450 3A4, sequence (P08684 whole entry): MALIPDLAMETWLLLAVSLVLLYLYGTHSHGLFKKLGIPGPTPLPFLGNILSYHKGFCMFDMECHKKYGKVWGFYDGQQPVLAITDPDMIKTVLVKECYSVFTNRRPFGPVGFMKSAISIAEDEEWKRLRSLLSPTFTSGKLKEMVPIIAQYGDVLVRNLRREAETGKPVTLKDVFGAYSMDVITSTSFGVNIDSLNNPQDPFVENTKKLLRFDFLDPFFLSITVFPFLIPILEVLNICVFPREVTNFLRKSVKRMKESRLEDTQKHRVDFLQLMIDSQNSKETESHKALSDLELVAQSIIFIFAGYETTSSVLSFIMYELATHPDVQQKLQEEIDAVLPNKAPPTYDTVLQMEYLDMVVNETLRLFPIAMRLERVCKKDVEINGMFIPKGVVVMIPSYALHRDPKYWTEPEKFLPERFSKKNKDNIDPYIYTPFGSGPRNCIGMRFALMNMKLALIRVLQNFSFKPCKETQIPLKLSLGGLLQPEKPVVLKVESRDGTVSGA

Row | Compound | IC50 (Orexin receptor type 2) | microsomal CLint at 1 µM [1] | IC50 [2] | also measured
1 | COc1ccc(CCC2CCCCN2C(=O)c2cc(C)ccc2-n2nccn2)cc1OC (racemic) | 16 nM | 817 µL/min/mg | 28 nM | 
2 | COc1ccc(C[C@@H]2CCCN2C(=O)c2nc(C)ccc2-c2ncccn2)cc1OC | 71 nM | 17 µL/min/mg | 60 nM | 
3 | COc1ccc(C[C@@H]2CCCN2C(=O)c2nc(C)sc2-c2cccc(C)c2)cc1Cl | 1.8 nM | > 1250 µL/min/mg | 3.8 nM | microsomal CLint at 1 µM [3]: > 1250 µL/min/mg
4 | COc1cccc(-c2sc(C)nc2C(=O)N2CCC[C@H]2Cc2ccc(OC)c(OC)c2)c1 | 7.8 nM | 300 µL/min/mg | 11 nM | 
5 | COc1ccc(Cl)c(C[C@@H]2CCCN2C(=O)c2nc(C)sc2-c2cccc(C)c2)c1 | 18 nM | 996 µL/min/mg | 33 nM | microsomal CLint at 1 µM [3]: > 1250 µL/min/mg
6 | CCn1cc(C(=O)N2CCc3ccsc3C2Cc2ccc(OC)c(OC)c2)c2ccccc21 (racemic) | 1.4 nM | > 1250 µL/min/mg | 5.4 nM | microsomal CLint at 1 µM [3]: > 1250 µL/min/mg; solubility [4]: 7 µg/mL (≈ 15.2 µM); IC50 (Cytochrome P450 3A4): 3000 nM
7 | COc1ccc(C[C@@H]2CCCN2C(=O)c2ccccc2-c2ncccn2)cc1OC | 4.7 nM | 102 µL/min/mg | 16 nM | concentration at 3 h [5]: 134 ng/mL; concentration at 3 h [6]: 113 ng/mL; Kp at 3 h [7]: 0.18; concentration at 3 h [8]: 737 ng/mL
8 | Cc1cccc(-c2sc(C)nc2C(=O)N2CCC[C@H]2Cc2ccc3c(c2)OCCO3)c1 | 39 nM | 1040 µL/min/mg | 35 nM | 
9 | CCn1cc(C(=O)N2CCCCC2Cc2ccc(OC)c(OC)c2)c2ccccc21 (racemic) | 102 nM |  | 28 nM | 
10 | COc1ccc(CC2CCCCN2C(=O)c2cc(C)ccc2-n2nccn2)cc1OC (racemic) | 3.3 nM | 616 µL/min/mg | 2.7 nM | 
11 | COc1ccc(C[C@@H]2CCCN2C(=O)c2ccccc2-n2nccn2)cc1OC | 3.5 nM | 104 µL/min/mg | 16 nM | concentration at 3 h [5]: 45 ng/mL; concentration at 3 h [6]: 12 ng/mL; Kp at 3 h [7]: 0.39; microsomal CLint at 1 µM [3]: > 1250 µL/min/mg; concentration at 3 h [8]: 114 ng/mL
12 | Cc1cccc(-c2sc(C)nc2C(=O)N2CCC[C@H]2Cc2ccc(C)c(Cl)c2)c1 | 10 nM | > 1250 µL/min/mg | 13 nM | microsomal CLint at 1 µM [3]: > 1250 µL/min/mg
13 | COc1ccc(C[C@@H]2CCCN2C(=O)c2nccnc2-c2cccc(C)c2)cc1OC | 4 nM | 158 µL/min/mg | 23 nM | concentration at 3 h [5]: 89 ng/mL; concentration at 3 h [6]: 22 ng/mL; Kp at 3 h [7]: 0.4; concentration at 3 h [8]: 225 ng/mL
14 | COc1ccc(C[C@@H]2CCCN2C(=O)c2nc(C)sc2-c2ccc(F)cc2)cc1OC | 62 nM | 216 µL/min/mg | 111 nM | 
15 | COc1cccc(CCC2CCCCN2C(=O)c2cc(C)ccc2-n2nccn2)c1 (racemic) | 243 nM | 1170 µL/min/mg | 108 nM | 
16 | COc1ccc(C[C@@H]2CCCN2C(=O)c2ccccc2-c2nc(C)no2)cc1OC | 12 nM | 129 µL/min/mg | 33 nM | 
17 | Cc1cccc(-c2sc(C)nc2C(=O)N2CCC[C@H]2Cc2ccc3c(c2)OCO3)c1 | 40 nM | 124 µL/min/mg | 64 nM | 
18 | COc1ccc(C[C@@H]2CCCN2C(=O)c2nc(C)sc2-c2ccc3c(c2)CCO3)cc1OC | 8 nM | 235 µL/min/mg | 8.3 nM | 
19 | COc1ccc(-c2sc(C)nc2C(=O)N2CCC[C@H]2Cc2ccc(OC)c(OC)c2)cc1 | 10 nM | 210 µL/min/mg | 17 nM | 
20 | COc1cccc(C[C@@H]2CCCN2C(=O)c2nc(C)sc2-c2cccc(C)c2)c1Cl | 16 nM | > 1250 µL/min/mg | 26 nM | microsomal CLint at 1 µM [3]: > 1250 µL/min/mg
21 | COc1ccc(C[C@@H]2CCCN2C(=O)c2cc(C)ccc2-n2cccn2)cc1OC | 65 nM | > 1250 µL/min/mg | 45 nM | 
22 | Cc1cccc(-c2sc(C)nc2C(=O)N2CCC[C@H]2Cc2ccc(Cl)c(Cl)c2)c1 | 66 nM | > 1250 µL/min/mg | 22 nM | 
23 | COc1cc(C[C@@H]2CCCN2C(=O)c2nc(C)sc2-c2cccc(C)c2)cc(OC)c1 | 4.3 nM | 798 µL/min/mg | 3.4 nM | 
24 | CNC(=O)[C@@H](c1ccccc1)N1CCc2cc(OC)c(OC)cc2[C@@H]1CCc1ccc(C(F)(F)F)cc1 [ALMOREXANT] |  |  |  | Activity (Rattus norvegicus [9]): -42%; Activity (Rattus norvegicus [10]): Active; Activity (Rattus norvegicus [11]): -20%; Activity (Rattus norvegicus [12]): -8%; Activity (Rattus norvegicus [13]): 22%; Activity (Rattus norvegicus [14]): 50%
25 | COc1ccc(C[C@@H]2CCCN2C(=O)c2nc(C)sc2-c2cccc(C)c2)cc1OC | 3.1 nM | 338 µL/min/mg | 3.5 nM | concentration at 3 h [5]: 125 ng/mL; concentration at 3 h [6]: 6 ng/mL; Kp at 3 h [7]: 0.97; microsomal CLint at 1 µM [3]: > 1250 µL/min/mg; concentration at 3 h [8]: 129 ng/mL
26 | Cc1ccc(-n2nccn2)c(C(=O)N2CCN(c3nc4cc(Cl)ccc4o3)CC[C@H]2C)c1 [SUVOREXANT] |  |  |  | Activity (Rattus norvegicus [9]): -31%; Activity (Rattus norvegicus [10]): Active; Activity (Rattus norvegicus [11]): -16%; Activity (Rattus norvegicus [12]): 9%; Activity (Rattus norvegicus [13]): 19%; Activity (Rattus norvegicus [14]): 20%
27 | COc1ccc(C[C@@H]2CCCN2C(=O)c2cc(C)ccc2-n2nccn2)cc1OC | 8.4 nM | 356 µL/min/mg | 8.5 nM | microsomal CLint at 1 µM [3]: > 1250 µL/min/mg; solubility [4]: 160 µg/mL (≈ 394 µM); clearance [15]: 55 mL/min/kg; bioavailability [16]: < 10%; logD [17]: 3
28 | COc1ccc(CC2c3sccc3CCN2C(=O)c2cc(C)ccc2-n2nccn2)cc1OC (racemic) | 428 nM |  | 131 nM | 
29 | COc1ccc(C[C@@H]2CCCN2C(=O)c2nc(C)sc2-c2cccc(Cl)c2)cc1OC | 6.3 nM | 612 µL/min/mg | 9.1 nM | 
